Data on two molecules can be found in US4230725A, “Antiviral agent” (Sumitomo Chemical Company, Limited, priority 1977, dated 1980).

Molecules are shown by their SMILES. Structures can show the parent of a compound that is named as a salt. Where two headings read alike, the source gives them in different places.

Data set [1] concerns herpes simplex virus type I (HF strain). The data set is described as follows: Effect on the growth of herpes virus in tissue cultures (tube dilution method). The data set is classed as cell-based. The conditions noted are these: for MIC: read-out: MIC (minimum virus growth inhibitory concentration); for MIC (minimum virus growth inhibitory concentration): host cells KB. As to the method:
The antiviral activity was examined by the tube dilution method. HeLa cells and KB cells for the assay were cultured in YLE medium and Eagle MEM medium in vitro, respectively, containing 10% fetal calf serum. After the cells were grown in a monolayer form, the medium was exchanged to the fresh medium supplemented with 2% fetal calf serum, and then about 1000 TCD50 of herpes simplex virus type I (HF strain) and the test compound were added. After 72 hours' incubation at 37° C., the cytotoxicity of the compound and the virus induced cytopathic effect (CPE) were observed microscopically.
The antiviral activity was expressed in minimum virus growth inhibitory concentration (MIC) and minimum cytotoxic concentration (MCC) in Table 1.

Data set [2] deals with Influenza Ao PR/8. The data set is classed as in vivo, ddY male mice. The following applies: 7 days after infection, dose 0: 4.8.
Data set [3] can be described thus: in vitro. The following applies: human, hela cells.
Data set [4] is described as follows: in vitro. The following applies: human, kb cells.
The test system of data set [5] is eyes of a rabbit. The data set is described as follows: Herpes keratitis in rabbit: toxicity control eyes (scratched, not infected). The data set is classed as in vivo. The conditions noted are these: 0.5% eye lotion. How it is done: After 2% cocaine was applied to the eyes of a rabbit anesthetized with barbital, the corneal epithelium of each eye was scratched and infected with herpes simplex virus type I (HF strain).
The treatment with the compound A was carried out as follows: Twelve hours after virus infection, 0.5% eye lotion of the compound A in 1.4% polyvinyl alcohol was applied every two hours, five times a day during seven days.
For seven days after infection, the lesions on the conjunctiva, cornea and iris were daily observed visually prior to the first treatment and recorded according to the scoring method.
Separately from this, eyes of a rabbit were scratched but not infected with virus, one of the eyes was similarly treated with the compound A and the other eye was treated with 1.4% polyvinyl alcohol as toxicity control.

Data set [6] relates to herpes simplex virus type I (HF strain). The data set is described as follows: Therapeutic effect on herpes encephalitis in mice. The data set is classed as in vivo. The following applies: for Survival ratio: 21st day, untreated 0/10; for Mean survival term: 21 days. How it is done: Mice were anesthetized with ether and were infected intracerebrally […] with about 30 LD50 of herpes simplex virus type I (HF strain). The infected mice were administered with the compound A according to various therapeutic schedules. The therapeutic effects of the compound A were examined on the basis of the survival ratios at the 3rd week after virus infection and the mean survival days.
^a Dose of administration
^b Administration schedule of each route was as follows:
i.c. (intracerebrally): Single administration simultaneously with virus
p.o. (per os): Two administrations per day during 8.5 days from 4 hours
s.c. (subcutaneously): Two administrations per day during 8.5 days from 4
hours after virus infection.
i.v. (intravenously): Single administration 3 hours after virus infection
^c The animals were examined for 21 days after infection, and mean
survival term was determined.
^d Survival ratio on the 21st day after virus infection.

The test system of data set [7] is herpes and influenza viruses. The data set is described as follows: Antiviral activity, overall statement. The following applies: against herpes and influenza viruses; in vivo as well as in vitro.
Data set [8] in a line: Acute toxicity in mice. The following applies: mouse, in vivo.
The mark [9] stands for this setting: about 1000 TCD50, 72 hours at 37° C.

In the case of `NC12CC3CC(CC(C3)C1)C2` [Amantadine hydrochloride, reference compound], the MIC in data set [1] (72 h) worked out at 50 µg/mL. In addition, the “MIC (minimum virus growth inhibitory concentration)” value in data set [1] (setting [9]) was determined as 50 µg/mL. Moreover, the “Lung Lesion Score” value stood at 4.3 in data set [2] (10 mg/kg subcutaneous, *P < 0.05); 4.1 in data set [2] (25 mg/kg subcutaneous, *P < 0.05); 4.0 in data set [2] (50 mg/kg subcutaneous, *P < 0.05). The MCC at 72 h in data set [3] and in data set [4] was greater than 50 µg/mL throughout.
Turning to `Cl.NC12CCCC(C1)C1CCC2C1` (stereo not drawn) [Compound A, 1-Amino-2,4-ethanobicyclo[3,3,1]nonane hydrochloride], the MIC in data set [1] (host cells HeLa, about 1000 TCD50, 72 hours at 37° C.) came to 2.5 µg/mL. For the same molecule, the “MIC (minimum virus growth inhibitory concentration)” value in data set [1] (setting [9]) stood at 2.5 µg/mL. Also, the “effect on cure period as compared with the toxicity control” value in data set [5] (five times a day during seven days, scratched uninfected rabbit eyes) was “did not prolong the cure period”. For the same molecule, the “toxicity of the eye lotion” value in data set [5] (rabbit eyes) is given as “no toxicity”. Also, the Survival ratio in data set [6] (5 mg/kg i.c., single administration simultaneously with virus infection) was 6/10; in data set [6] (10 mg/kg i.v., single administration 3 hours after infection), 4/10; in data set [6] (100 mg/kg p.o., two per day during 8.5 days from 4 hours after infection) it was 4/10; in data set [6] (100 mg/kg s.c., two per day during 8.5 days from 4 hours after infection) it was 5/10. In addition, the Mean survival term was 8.3 days in data set [6] (5 mg/kg i.c., single administration simultaneously with virus infection, untreated 5.7); 8.1 days in data set [6] (10 mg/kg i.v., single administration 3 hours after infection, untreated 5.8); 7.7 days in data set [6] (100 mg/kg p.o., two per day during 8.5 days from 4 hours after infection, untreated 5.5); 7.6 days in data set [6] (100 mg/kg s.c., two per day during 8.5 days from 4 hours after infection, untreated 5.7). The “Lung Lesion Score” value in data set [2] (7.5 mg/kg subcutaneous, no asterisk) came out at 4.4; in data set [2] (15 mg/kg subcutaneous, *P < 0.05), 4.2; in data set [2] (30 mg/kg subcutaneous, *P < 0.05) it was 4.0. Further, in data set [7], the antiviral activity entry was “very strong antiviral activity”. Besides, the MCC at 72 h in data set [3] and in data set [4] was 100 µg/mL in each case. Moreover, the figures for the LD50 in data set [8] (iv) and in data set [8] (po) were 58 mg/kg and 320 mg/kg, respectively.

One may read the LD50 as the dose expected to kill half of the subjects tested. A lower LD50 goes with greater toxicity.
